Test results reported in the supplement of paper PMC10307832.

Legend:
Assay in all cases: relative viability (nuclei count vs DMSO), 5 days (fraction); higher = more cells survive
Doramapimod + Phenformin = compound: Cc1ccc(-n2nc(C(C)(C)C)cc2NC(=O)Nc2ccc(OCCN3CCOCC3)c3ccccc23)cc1 [Doramapimod] + N=C(N)NC(=N)NCCc1ccccc1 [Phenformin] (partner 250 µM)
Summary of the method: (§1)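 Cells from lung cancer lines were seeded into 1536-well plates and, one day later, dosed by pin tool. Treatments were either a single drug or a fixed dose of an anchor drug with five library-drug doses (not always all listed) in √10 steps. After 5 days, nuclei were stained in a one-step fixation (final 0.05% Triton X-100, 1% formaldehyde, 1 ug/ml Hoechst) and counted on 4× images, and relative viability is the treated-to-vehicle nuclei ratio, as the median of duplicate plates.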

Doramapimod + Crizotinib = compound: Cc1ccc(-n2nc(C(C)(C)C)cc2NC(=O)Nc2ccc(OCCN3CCOCC3)c3ccccc23)cc1 [Doramapimod] + C[C@@H](Oc1cc(-c2cnn(C3CCNCC3)c2)cnc1N)c1c(Cl)ccc(F)c1Cl [Crizotinib] (partner 1 µM)
Summary of the method: as §1

IPA-3 + Phenformin = compound: C1=CC=C2C(=C1)C=CC(=C2SSC3=C(C=CC4=CC=CC=C43)O)O [IPA-3] + N=C(N)NC(=N)NCCc1ccccc1 [Phenformin] (partner 250 µM)
Summary of the method: as §1

RAF265 + Tozasertib = compound: Cn1c(Nc2ccc(C(F)(F)F)cc2)nc2cc(Oc3ccnc(-c4ncc(C(F)(F)F)[nH]4)c3)ccc21 [RAF265] + Cc1cc(Nc2cc(N3CCN(C)CC3)nc(Sc3ccc(NC(=O)C4CC4)cc3)n2)n[nH]1 [Tozasertib] (partner 0.1 µM)
Summary of the method: as §1

| Cell Line | relative viability (Doramapimod + Phenformin; first compound 0.02 µM) | relative viability (Doramapimod + Phenformin; first compound 0.06325 µM) | relative viability (Doramapimod + Phenformin; first compound 0.2 µM) | relative viability (Doramapimod + Phenformin; first compound 0.6325 µM) | relative viability (Doramapimod + Phenformin; first compound 2 µM) | relative viability (Doramapimod + Crizotinib; first compound 0.02 µM) | relative viability (Doramapimod + Crizotinib; first compound 0.06325 µM) | relative viability (Doramapimod + Crizotinib; first compound 0.2 µM) | relative viability (Doramapimod + Crizotinib; first compound 0.6325 µM) | relative viability (Doramapimod + Crizotinib; first compound 2 µM) | relative viability (IPA-3 + Phenformin; first compound 0.2 µM) | relative viability (IPA-3 + Phenformin; first compound 0.6325 µM) | relative viability (IPA-3 + Phenformin; first compound 2 µM) | relative viability (IPA-3 + Phenformin; first compound 6.325 µM) | relative viability (IPA-3 + Phenformin; first compound 20 µM) | relative viability (RAF265 + Tozasertib; first compound 0.01 µM) | relative viability (RAF265 + Tozasertib; first compound 0.03162 µM) | relative viability (RAF265 + Tozasertib; first compound 0.1 µM) | relative viability (RAF265 + Tozasertib; first compound 0.3162 µM) | relative viability (RAF265 + Tozasertib; first compound 1 µM) |
| --- | --- | --- | --- | --- | --- | --- | --- | --- | --- | --- | --- | --- | --- | --- | --- | --- | --- | --- | --- | --- |
| NCI-H2170 | 0.418 | 0.403 | 0.474 | 0.368 | 0.426 | 1.12 | 1.2 | 1.09 | 1.22 | 1.14 | 0.438 | 0.358 | 0.457 | 0.356 | 0.481 | 0.734 | 0.651 | 0.752 | 0.587 | 0.538 |
| NCI-H2342 | 0.617 | 0.594 | 0.593 | 0.704 | 0.497 | – | – | – | – | – | 0.629 | 0.619 | 0.568 | 0.825 | 0.731 | 0.551 | 0.592 | 0.542 | 0.52 | 0.463 |
| LCLC-97TM1 | 0.456 | 0.424 | 0.488 | 0.38 | 0.269 | 0.326 | 0.357 | 0.31 | 0.338 | 0.209 | 0.449 | 0.447 | 0.407 | 0.315 | 0.46 | 0.223 | 0.141 | 0.156 | 0.109 | 0.0904 |
| NCI-H1299 | – | – | – | – | – | 0.963 | 0.945 | 0.936 | 1 | 0.902 | – | – | – | – | – | – | – | – | – | – |
| NCI-H3122 | 0.381 | 0.423 | 0.407 | 0.38 | 0.36 | 0.268 | 0.267 | 0.223 | 0.256 | 0.266 | 0.442 | 0.38 | 0.389 | 0.31 | 0.362 | 0.362 | 0.492 | 0.424 | – | 0.283 |
| NCI-H1395 | 0.483 | 0.474 | 0.44 | 0.485 | 0.365 | – | – | – | – | – | 0.46 | 0.431 | 0.446 | 0.479 | 0.469 | 0.677 | 0.667 | 0.666 | 0.84 | 0.609 |
| NCI-H2009 | 0.506 | 0.543 | 0.546 | 0.478 | 0.408 | 1.04 | 1.2 | 1.18 | 1.08 | 0.988 | 0.539 | 0.477 | 0.495 | 0.445 | 0.387 | 0.758 | 0.721 | 0.745 | 0.809 | 0.476 |
| NCI-H1651 | 0.323 | 0.317 | 0.348 | 0.415 | 0.45 | 0.847 | 0.871 | 0.875 | 0.89 | 0.851 | 0.341 | 0.317 | 0.364 | 0.339 | 0.31 | 0.744 | 0.718 | 0.731 | 0.703 | 0.426 |
| HARA | 0.464 | 0.495 | 0.464 | – | 0.425 | 1.27 | 0.966 | 0.965 | 1.08 | 0.992 | 0.653 | 0.427 | 0.432 | 0.442 | 0.564 | 0.12 | 0.0972 | 0.13 | 0.0934 | 0.0806 |
| NCI-H1944 | 0.181 | 0.201 | 0.196 | 0.227 | 0.166 | 1.09 | 0.993 | 1.14 | 1.16 | 1.11 | 0.212 | 0.186 | 0.189 | 0.219 | 0.176 | 0.265 | 0.248 | 0.265 | 0.234 | 0.185 |
| NCI-H2347 | 0.429 | – | 0.429 | 0.386 | 0.398 | 0.789 | 0.568 | 0.745 | 0.762 | 0.644 | 0.334 | 0.448 | 0.33 | 0.406 | 0.736 | 0.653 | 0.507 | 0.809 | 0.436 | 0.325 |
| 201T | 0.453 | 0.471 | 0.448 | 0.497 | 0.394 | 1.03 | 1.06 | 0.993 | 1.09 | 1.01 | 0.452 | 0.454 | 0.484 | 0.461 | 0.469 | 0.955 | 0.862 | 1.03 | 0.939 | 0.696 |
| Calu-6 | – | – | – | – | – | 0.823 | 0.815 | 0.865 | 0.866 | 0.745 | – | – | – | – | – | – | – | – | – | – |
| NCI-H1703 | – | – | – | – | – | 0.614 | 0.576 | 0.519 | 0.783 | 0.493 | – | – | – | – | – | – | – | – | – | – |
| NCI-H1648 | – | – | – | – | – | – | – | – | – | – | – | – | – | – | – | 0.425 | 0.431 | 0.598 | 0.466 | 0.417 |
| NCI-H1792 | 0.389 | 0.381 | 0.217 | 0.476 | 0.214 | 0.762 | 1.06 | 1.07 | 1.04 | 0.971 | 0.371 | 0.44 | – | – | 0.408 | – | – | – | – | – |
| NCI-H1623 | 0.635 | 0.636 | 0.57 | 0.354 | 0.544 | – | – | – | – | – | 0.605 | 0.583 | 0.618 | 0.563 | 0.655 | 0.507 | 0.474 | 0.475 | – | 0.392 |
| NCI-H522 | 0.6 | 0.573 | 0.621 | 0.677 | 0.603 | – | – | – | – | – | 0.648 | 0.657 | 0.582 | 0.697 | 0.76 | 0.57 | 0.602 | 0.546 | 0.553 | 0.521 |
| SW 900 | 0.612 | 0.665 | 0.676 | 0.76 | 0.635 | – | – | – | – | – | 0.783 | 0.575 | 0.556 | 0.784 | 0.677 | 0.648 | 0.583 | 0.594 | 0.526 | 0.295 |
| NCI-H1793 | 0.365 | 0.346 | 0.346 | 0.381 | 0.256 | – | – | – | – | – | 0.509 | 0.317 | 0.334 | 0.458 | 0.545 | 0.404 | 0.421 | 0.361 | – | 0.172 |
| IA-LM | – | – | – | – | – | 0.856 | – | 0.699 | 0.795 | 0.792 | – | – | – | – | – | – | – | – | – | – |
| A549 | 0.177 | 0.165 | 0.126 | 0.136 | 0.132 | 0.763 | 0.747 | 0.771 | 0.743 | 0.762 | 0.197 | – | 0.142 | 0.189 | 0.298 | – | – | – | – | – |
